Common to all, as to test: relative viability (nuclei count vs DMSO), 5 days (fraction); higher = more cells survive
Compound in the experiment “BAY61-3606 + Dasatinib”: COC1=C(C=C(C=C1)C2=CC3=NC=CN3C(=N2)NC4=C(C=CC=N4)C(=O)N)OC [BAY61-3606] + Cc1nc(Nc2ncc(C(=O)Nc3c(C)cccc3Cl)s2)cc(N2CCN(CCO)CC2)n1 [Dasatinib] (partner 0.075 µM)
In a few lines:
(§1)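 Nuclei were stained with Hoechst during a one-step fixation (final 0.05% Triton X-100, 1% formaldehyde, 1 ug/ml Hoechst) carried out 5 days after dosing, then counted on 4× images. The cells, lung cancer lines in 1536-well plates, had been dosed by pin tool the day after seeding with one drug alone or a fixed anchor-drug dose plus five library-drug doses (not always all listed) in √10 steps. Relative viability is the nuclei count in treated wells divided by that in vehicle wells, and each value is the median of duplicate plates.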

Compound in the experiment “Doxorubicin + Tozasertib”: COc1cccc2c1C(=O)c1c(O)c3c(c(O)c1C2=O)C[C@@](O)(C(=O)CO)C[C@@H]3O[C@H]1C[C@H](N)[C@H](O)[C@H](C)O1 [Doxorubicin] + Cc1cc(Nc2cc(N3CCN(C)CC3)nc(Sc3ccc(NC(=O)C4CC4)cc3)n2)n[nH]1 [Tozasertib] (partner 0.1 µM)
The method in brief:
as §1

Compound in the experiment “Doxorubicin + Pemetrexed”: COc1cccc2c1C(=O)c1c(O)c3c(c(O)c1C2=O)C[C@@](O)(C(=O)CO)C[C@@H]3O[C@H]1C[C@H](N)[C@H](O)[C@H](C)O1 [Doxorubicin] + Nc1nc2[nH]cc(CCc3ccc(C(=O)N[C@@H](CCC(=O)O)C(=O)O)cc3)c2c(=O)[nH]1 [Pemetrexed] (partner 0.2 µM)
In a few lines:
as §1

Compound in the experiment “Doxorubicin + Bortezomib”: COc1cccc2c1C(=O)c1c(O)c3c(c(O)c1C2=O)C[C@@](O)(C(=O)CO)C[C@@H]3O[C@H]1C[C@H](N)[C@H](O)[C@H](C)O1 [Doxorubicin] + CC(C)C[C@H](NC(=O)[C@H](Cc1ccccc1)NC(=O)c1cnccn1)B(O)O [Bortezomib] (partner 0.002 µM)
In a few lines: as §1

Regarding NCI-H1355, the relative viability came out at 0.68 in the experiment with BAY61-3606 + Dasatinib (first compound 0.02 µM); 0.627 in the experiment with BAY61-3606 + Dasatinib (first compound 0.06325 µM); 0.65 with BAY61-3606 + Dasatinib (first compound 0.2 µM); 0.662 with BAY61-3606 + Dasatinib (first compound 0.6325 µM); 0.67 with BAY61-3606 + Dasatinib (first compound 2 µM); 0.632 in the experiment with Doxorubicin + Tozasertib (first compound 0.001 µM). Also, the relative viability with Doxorubicin + Tozasertib (first compound 0.003162 µM) stood at 0.508; with Doxorubicin + Tozasertib (first compound 0.01 µM), 0.52; with Doxorubicin + Tozasertib (first compound 0.03162 µM) it was 0.443; with Doxorubicin + Tozasertib (first compound 0.1 µM) it was 0.598; with Doxorubicin + Pemetrexed (first compound 0.001 µM) it was 1; with Doxorubicin + Pemetrexed (first compound 0.003162 µM), 1.02. Further, the relative viability with Doxorubicin + Pemetrexed (first compound 0.01 µM) came to 1; with Doxorubicin + Pemetrexed (first compound 0.03162 µM) it was 1.01; in the experiment with Doxorubicin + Pemetrexed (first compound 0.1 µM), 1.04; in the experiment with Doxorubicin + Bortezomib (first compound 0.001 µM) it was 1.08; with Doxorubicin + Bortezomib (first compound 0.003162 µM) it was 1.32; in the experiment with Doxorubicin + Bortezomib (first compound 0.01 µM), 1.14. Moreover, the figures for the relative viability in the experiment with Doxorubicin + Bortezomib (first compound 0.03162 µM) and with Doxorubicin + Bortezomib (first compound 0.1 µM) were 1.28 and 1.29, respectively.
Regarding NCI-H1437, the relative viability in the experiment with BAY61-3606 + Dasatinib (first compound 0.02 µM) was found to be 0.382; with BAY61-3606 + Dasatinib (first compound 0.06325 µM) it was 0.355; with BAY61-3606 + Dasatinib (first compound 0.2 µM), 0.391; with BAY61-3606 + Dasatinib (first compound 0.6325 µM), 0.382; with BAY61-3606 + Dasatinib (first compound 2 µM) it was 0.403; with Doxorubicin + Tozasertib (first compound 0.001 µM), 0.411. For the same cell line, the relative viability was determined as 0.414 with Doxorubicin + Tozasertib (first compound 0.003162 µM); 0.405 in the experiment with Doxorubicin + Tozasertib (first compound 0.01 µM); 0.379 in the experiment with Doxorubicin + Tozasertib (first compound 0.03162 µM); 0.283 in the experiment with Doxorubicin + Tozasertib (first compound 0.1 µM); 0.32 in the experiment with Doxorubicin + Pemetrexed (first compound 0.001 µM); 0.297 with Doxorubicin + Pemetrexed (first compound 0.003162 µM). Moreover, the relative viability with Doxorubicin + Pemetrexed (first compound 0.01 µM) was determined as 0.303; in the experiment with Doxorubicin + Pemetrexed (first compound 0.03162 µM) it was 0.315; with Doxorubicin + Pemetrexed (first compound 0.1 µM) it was 0.329; in the experiment with Doxorubicin + Bortezomib (first compound 0.001 µM), 0.491; with Doxorubicin + Bortezomib (first compound 0.003162 µM) it was 0.605; with Doxorubicin + Bortezomib (first compound 0.01 µM) it was 0.472. The relative viability in the experiment with Doxorubicin + Bortezomib (first compound 0.03162 µM) was found to be 0.205; in the experiment with Doxorubicin + Bortezomib (first compound 0.1 µM) it was 0.185.
With NCI-H1650, the relative viability turned out to be 0.304 with BAY61-3606 + Dasatinib (first compound 0.02 µM); 0.261 with BAY61-3606 + Dasatinib (first compound 0.06325 µM); 0.3 with BAY61-3606 + Dasatinib (first compound 0.2 µM); 0.296 in the experiment with BAY61-3606 + Dasatinib (first compound 0.6325 µM); 0.245 with BAY61-3606 + Dasatinib (first compound 2 µM); 0.411 with Doxorubicin + Tozasertib (first compound 0.001 µM). The relative viability was 0.32 with Doxorubicin + Tozasertib (first compound 0.003162 µM); 0.261 in the experiment with Doxorubicin + Tozasertib (first compound 0.01 µM); 0.207 with Doxorubicin + Tozasertib (first compound 0.03162 µM); 0.111 with Doxorubicin + Tozasertib (first compound 0.1 µM); 0.37 with Doxorubicin + Pemetrexed (first compound 0.001 µM); 0.374 with Doxorubicin + Pemetrexed (first compound 0.003162 µM). Also, the relative viability with Doxorubicin + Pemetrexed (first compound 0.01 µM) is 0.381; with Doxorubicin + Pemetrexed (first compound 0.03162 µM), 0.242; with Doxorubicin + Pemetrexed (first compound 0.1 µM), 0.19; with Doxorubicin + Bortezomib (first compound 0.001 µM), 0.215; with Doxorubicin + Bortezomib (first compound 0.003162 µM) it was 0.185; with Doxorubicin + Bortezomib (first compound 0.01 µM) it was 0.187. The relative viability in the experiment with Doxorubicin + Bortezomib (first compound 0.03162 µM) amounted to 0.185; with Doxorubicin + Bortezomib (first compound 0.1 µM), 0.168.
As for NCI-H1651, the relative viability was 0.379 in the experiment with BAY61-3606 + Dasatinib (first compound 0.02 µM); 0.459 with BAY61-3606 + Dasatinib (first compound 0.06325 µM); 0.387 in the experiment with BAY61-3606 + Dasatinib (first compound 0.2 µM); 0.32 with BAY61-3606 + Dasatinib (first compound 0.6325 µM); 0.318 with BAY61-3606 + Dasatinib (first compound 2 µM); 0.643 with Doxorubicin + Tozasertib (first compound 0.001 µM). The relative viability came out at 0.793 with Doxorubicin + Tozasertib (first compound 0.003162 µM); 0.648 with Doxorubicin + Tozasertib (first compound 0.01 µM); 0.319 in the experiment with Doxorubicin + Tozasertib (first compound 0.03162 µM); 0.157 with Doxorubicin + Tozasertib (first compound 0.1 µM); 0.591 with Doxorubicin + Pemetrexed (first compound 0.001 µM); 0.628 with Doxorubicin + Pemetrexed (first compound 0.003162 µM). The relative viability with Doxorubicin + Pemetrexed (first compound 0.01 µM) is 0.604; with Doxorubicin + Pemetrexed (first compound 0.03162 µM) it was 0.57; with Doxorubicin + Pemetrexed (first compound 0.1 µM), 0.588; with Doxorubicin + Bortezomib (first compound 0.001 µM), 0.987; with Doxorubicin + Bortezomib (first compound 0.003162 µM), 0.958; with Doxorubicin + Bortezomib (first compound 0.01 µM), 0.869. In addition, the results for the relative viability with Doxorubicin + Bortezomib (first compound 0.03162 µM) and with Doxorubicin + Bortezomib (first compound 0.1 µM) were 0.842 and 0.902, respectively.
As to NCI-H1666, the relative viability with BAY61-3606 + Dasatinib (first compound 0.02 µM) stood at 0.841; with BAY61-3606 + Dasatinib (first compound 0.06325 µM), 0.804; in the experiment with BAY61-3606 + Dasatinib (first compound 0.2 µM) it was 0.813; with BAY61-3606 + Dasatinib (first compound 0.6325 µM), 0.742; in the experiment with BAY61-3606 + Dasatinib (first compound 2 µM), 0.652; with Doxorubicin + Tozasertib (first compound 0.001 µM) it was 0.62. Further, the relative viability in the experiment with Doxorubicin + Tozasertib (first compound 0.003162 µM) was 0.547; with Doxorubicin + Tozasertib (first compound 0.01 µM), 0.47; in the experiment with Doxorubicin + Tozasertib (first compound 0.03162 µM), 0.385; in the experiment with Doxorubicin + Tozasertib (first compound 0.1 µM) it was 0.343; in the experiment with Doxorubicin + Pemetrexed (first compound 0.003162 µM) it was 0.858; with Doxorubicin + Pemetrexed (first compound 0.01 µM), 0.724. In addition, the relative viability with Doxorubicin + Pemetrexed (first compound 0.03162 µM) came to 0.782; with Doxorubicin + Pemetrexed (first compound 0.1 µM), 0.757; with Doxorubicin + Bortezomib (first compound 0.001 µM) it was 0.833; in the experiment with Doxorubicin + Bortezomib (first compound 0.003162 µM) it was 0.559; in the experiment with Doxorubicin + Bortezomib (first compound 0.01 µM), 0.476; in the experiment with Doxorubicin + Bortezomib (first compound 0.03162 µM), 0.302. The relative viability in the experiment with Doxorubicin + Bortezomib (first compound 0.1 µM) was determined as 0.272.
For the cell line NCI-H1734, the relative viability with BAY61-3606 + Dasatinib (first compound 0.02 µM) amounted to 0.582; with BAY61-3606 + Dasatinib (first compound 0.06325 µM), 0.386; in the experiment with BAY61-3606 + Dasatinib (first compound 0.2 µM) it was 0.409; with BAY61-3606 + Dasatinib (first compound 0.6325 µM) it was 0.331; in the experiment with BAY61-3606 + Dasatinib (first compound 2 µM) it was 0.272; with Doxorubicin + Tozasertib (first compound 0.001 µM), 0.48. For the same cell line, the relative viability with Doxorubicin + Tozasertib (first compound 0.003162 µM) was found to be 0.275; in the experiment with Doxorubicin + Tozasertib (first compound 0.01 µM) it was 0.292; with Doxorubicin + Tozasertib (first compound 0.03162 µM) it was 0.238; with Doxorubicin + Tozasertib (first compound 0.1 µM), 0.249; with Doxorubicin + Pemetrexed (first compound 0.001 µM), 0.468; in the experiment with Doxorubicin + Pemetrexed (first compound 0.003162 µM), 0.404. For the same cell line, the relative viability with Doxorubicin + Pemetrexed (first compound 0.01 µM) was determined as 0.398; in the experiment with Doxorubicin + Pemetrexed (first compound 0.03162 µM) it was 0.448; in the experiment with Doxorubicin + Pemetrexed (first compound 0.1 µM) it was 0.421; with Doxorubicin + Bortezomib (first compound 0.001 µM) it was 0.867; with Doxorubicin + Bortezomib (first compound 0.003162 µM) it was 1.09; in the experiment with Doxorubicin + Bortezomib (first compound 0.01 µM), 0.89. The relative viability turned out to be 0.588 with Doxorubicin + Bortezomib (first compound 0.03162 µM) and 0.429 with Doxorubicin + Bortezomib (first compound 0.1 µM).
Regarding NCI-H1755, the relative viability with BAY61-3606 + Dasatinib (first compound 0.02 µM) is 0.415; with BAY61-3606 + Dasatinib (first compound 0.06325 µM), 0.412; with BAY61-3606 + Dasatinib (first compound 0.2 µM), 0.432; with BAY61-3606 + Dasatinib (first compound 0.6325 µM) it was 0.397; with BAY61-3606 + Dasatinib (first compound 2 µM) it was 0.317; with Doxorubicin + Tozasertib (first compound 0.001 µM) it was 0.605. For the same cell line, the relative viability was determined as 0.556 with Doxorubicin + Tozasertib (first compound 0.003162 µM); 0.576 in the experiment with Doxorubicin + Tozasertib (first compound 0.01 µM); 0.552 in the experiment with Doxorubicin + Tozasertib (first compound 0.03162 µM); 0.598 with Doxorubicin + Tozasertib (first compound 0.1 µM); 0.419 with Doxorubicin + Pemetrexed (first compound 0.001 µM); 0.408 with Doxorubicin + Pemetrexed (first compound 0.003162 µM). The relative viability is 0.419 with Doxorubicin + Pemetrexed (first compound 0.01 µM); 0.492 with Doxorubicin + Pemetrexed (first compound 0.03162 µM); 0.467 with Doxorubicin + Pemetrexed (first compound 0.1 µM); 0.99 in the experiment with Doxorubicin + Bortezomib (first compound 0.001 µM); 0.947 with Doxorubicin + Bortezomib (first compound 0.003162 µM); 0.985 with Doxorubicin + Bortezomib (first compound 0.01 µM). The results for the relative viability in the experiment with Doxorubicin + Bortezomib (first compound 0.03162 µM) and with Doxorubicin + Bortezomib (first compound 0.1 µM) were 0.981 and 0.969, respectively.

The record behind these values is the supplement of paper PMC10307832.
